Where a chain is given by its changes, count along the chain named.
What was measured:
Type in all cases: cell-based
GLP-2R K414^7.35A = target: T1, GLP-2R K414^7.35A (Homo sapiens, UniProt O95838, K414A); assay: cAMP accumulation, K414^7.35A; set-up: GLP-2R (1-553) (WT); expressed in transfected cells; host or cells: HEK 293T; settings: Table S3, K414A; HEK 293T, 30 min, RT; mean ± SEM, n ≥ 3 in duplicate; read-out: cAMP Emax (% WT)
T1 sequence (O95838 1-553 K414A): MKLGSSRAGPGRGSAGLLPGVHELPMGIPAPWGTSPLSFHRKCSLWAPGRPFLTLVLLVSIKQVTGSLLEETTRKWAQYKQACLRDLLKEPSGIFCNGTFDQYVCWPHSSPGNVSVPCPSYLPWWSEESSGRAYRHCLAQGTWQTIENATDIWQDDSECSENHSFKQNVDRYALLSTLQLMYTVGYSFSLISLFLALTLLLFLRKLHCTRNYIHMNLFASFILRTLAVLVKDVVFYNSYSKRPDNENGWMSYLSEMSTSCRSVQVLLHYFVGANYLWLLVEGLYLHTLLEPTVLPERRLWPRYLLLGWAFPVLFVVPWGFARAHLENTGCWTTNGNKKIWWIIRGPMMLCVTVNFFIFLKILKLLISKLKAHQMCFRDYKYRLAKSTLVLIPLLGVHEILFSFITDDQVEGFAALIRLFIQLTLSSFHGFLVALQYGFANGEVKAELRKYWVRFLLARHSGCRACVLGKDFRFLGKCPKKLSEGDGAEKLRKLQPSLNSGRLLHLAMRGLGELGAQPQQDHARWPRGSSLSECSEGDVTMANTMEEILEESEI
Protocol: (§1) HEK 293T cells were cultured in Dulbecco’s Modified Eagle’s Medium (DMEM) (Gibco, Waltham, USA) supplemented with 10% (v/v) fetal bovine serum (FBS) (Gibco) and 1% (v/v) sodium pyruvate (Gibco) at 37 °C, 5% CO2 in a humidified incubator. They were seeded onto 6-well cell culture plates and transiently transfected with different GLP-2R constructs using Lipofectamine 2000 transfection reagent (Invitrogen, Carlsbad, CA, USA). After 24 h, the transfected cells were seeded onto 384-well microtiter plates (3000 cells per well) in HBSS supplemented with 5 mM HEPES, 0.1% (w/v) bovine serum albumin (BSA) and 0.5 mM 3-isobutyl-1- methylxanthine, and stimulated with increasing concentrations of GLP-2 for 30 min at RT. Eu and Ulight were diluted by cAMP detection buffer and added to the plates separately to terminate the reaction. Plates were incubated at RT for 60 min before measuring the fluorescence intensity at 620 nm and […] by an EnVision multilabel plate reader (PerkinElmer, Boston, USA).

GLP-2R N334^ECL2A = target: T2, GLP-2R N334^ECL2A (Homo sapiens, UniProt O95838, N334A); assay: cAMP accumulation, N334^ECL2A; set-up: GLP-2R (1-553) (WT); expressed in transfected cells; host or cells: HEK 293T; settings: Table S3, N334A; HEK 293T, 30 min, RT; mean ± SEM, n ≥ 3 in duplicate; read-out: cAMP Emax (% WT)
T2 sequence (O95838 1-553 N334A): T1 sequence (O95838 1-553 K414A) with N334A, A414K
Protocol: as §1

GLP-2R K231^2.67A = target: T3, GLP-2R K231^2.67A (Homo sapiens, UniProt O95838, K231A); assay: cAMP accumulation, K231^2.67A; set-up: WT (1–553); expressed in transfected cells; HEK 293T (cAMP); settings: Table S3, K231A; HEK 293T, 30 min, RT; mean ± SEM, n ≥ 3 in duplicate; read-out: cAMP Emax (% WT)
T3 sequence (O95838 1-553 K231A): T1 sequence (O95838 1-553 K414A) with K231A, A414K
Protocol: as §1

GLP-2R (1-490)-LgBiT = target: T4, GLP-2R (1-490)-LgBiT (Homo sapiens, UniProt O95838); assay: cAMP accumulation, truncated construct; settings: Table S2, GLP-2R (1-490)-LgBiT; HEK 293T, 30 min, RT; mean ± SEM, n ≥ 3 in duplicate; read-out: cAMP accumulation Emax (% WT)
T4 construct: the C-terminus-truncated GLP-2R(1–490)-LgBiT; HA signal peptide (N); TEV site-OMBP-MBP (C); expressed in transfected cells; host or cells: HEK 293T
T4 sequence (O95838 1-490): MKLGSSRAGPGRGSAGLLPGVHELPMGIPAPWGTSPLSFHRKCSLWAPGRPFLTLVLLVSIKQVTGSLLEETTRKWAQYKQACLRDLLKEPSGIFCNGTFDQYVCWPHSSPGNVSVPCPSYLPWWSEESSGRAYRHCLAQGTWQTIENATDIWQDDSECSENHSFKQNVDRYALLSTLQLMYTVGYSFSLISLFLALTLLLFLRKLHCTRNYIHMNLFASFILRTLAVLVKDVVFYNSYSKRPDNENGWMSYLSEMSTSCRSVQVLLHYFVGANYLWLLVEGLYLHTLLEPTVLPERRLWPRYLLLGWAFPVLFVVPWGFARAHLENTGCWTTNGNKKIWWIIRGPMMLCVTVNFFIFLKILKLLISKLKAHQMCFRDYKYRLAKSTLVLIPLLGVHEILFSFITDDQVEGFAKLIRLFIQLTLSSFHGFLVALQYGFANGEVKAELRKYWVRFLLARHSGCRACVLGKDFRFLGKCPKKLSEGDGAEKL
Protocol: as §1

Work on `CC[C@H](C)[C@H](NC(=O)[C@H](Cc1ccccc1)NC(=O)[C@H](CC(=O)O)NC(=O)[C@H](CCCNC(=N)N)NC(=O)[C@H](C)NC(=O)[C@H](C)NC(=O)[C@H](CC(C)C)NC(=O)[C@H](CC(N)=O)NC(=O)[C@H](CC(=O)O)NC(=O)[C@H](CC(C)C)NC(=O)[C@@H](NC(=O)[C@@H](NC(=O)[C@H](CC(N)=O)NC(=O)[C@H](CCSC)NC(=O)[C@H](CCC(=O)O)NC(=O)[C@H](CC(=O)O)NC(=O)[C@H](CO)NC(=O)[C@H](Cc1ccccc1)NC(=O)[C@H](CO)NC(=O)CNC(=O)[C@H](CC(=O)O)NC(=O)[C@H](C)NC(=O)[C@@H](N)Cc1c[nH]cn1)[C@@H](C)O)[C@@H](C)CC)C(=O)N[C@@H](CC(N)=O)C(=O)N[C@@H](Cc1c[nH]c2ccccc12)C(=O)N[C@@H](CC(C)C)C(=O)N[C@H](C(=O)N[C@@H](CCC(N)=O)C(=O)N[C@H](C(=O)N[C@@H](CCCCN)C(=O)N[C@H](C(=O)N[C@H](C(=O)N[C@@H](CC(=O)O)C(=O)O)[C@@H](C)O)[C@@H](C)CC)[C@@H](C)O)[C@@H](C)CC` [Human GLP-2 (1–33)] yielded an Emax (GLP-2R K414^7.35A) of 110 ± 3.3%, an Emax (GLP-2R N334^ECL2A) of 103 ± 2.9% and an Emax (GLP-2R K231^2.67A) of 105 ± 3%. The Emax (GLP-2R (1-490)-LgBiT) was 85.3 ± 4%.

— publication PMC7785020, “A unique hormonal recognition feature of the human glucagon-like peptide-2 receptor” (Cell Research, 2020)
